Series [1] deals with T-ALL. Kind of series: Tumor burden and survival of mice with T-ALL. Format: in vivo.
Series [2] concerns the target T1, PIK3CG (Homo sapiens, UniProt P48736).
T1 construct: purchased DiscoverX (KINOMEscan); host or cells: E. coli BL21-derived host (T7 phage) or HEK-293
Kind of series: KINOMEscan competition binding assay (DiscoverX). As to conditions: DiscoveRx gene symbol PIK3CG (b251 prints: PI3Kδ). How it is done:
(§1) The compounds were tested using KINOMEscan™ (DiscoverX), which is based on a competition binding assay that quantitatively measures the ability of a compound to compete with an immobilized, active-site directed ligand. The assay is performed by combining three components: DNA-tagged kinase; immobilized ligand; and a test compound. The ability of the test compound to compete with the immobilized ligand is measured via quantitative PCR of the DNA tag.
(§2) For most assays, kinase-tagged T7 phage strains were prepared in an E. coli host derived from the BL21 strain. E. coli were grown to log-phase and infected with T7 phage and incubated with shaking at 32° C. until lysis. The lysates were centrifuged and filtered to remove cell debris. The remaining kinases were produced in HEK-293 cells and subsequently tagged with DNA for qPCR detection. Streptavidin-coated magnetic beads were treated with biotinylated small molecule ligands for 30 minutes at room temperature to generate affinity resins for kinase assays. The liganded beads were blocked with excess biotin and washed with blocking buffer (SeaBlock (Pierce), 1% BSA, 0.05% Tween 20, 1 mM DTT) to remove unbound ligand and to reduce non-specific binding. Binding reactions were assembled by combining kinases, liganded affinity beads, and test compounds in 1× binding buffer (20% SeaBlock, 0.17×PBS, 0.05% Tween 20, 6 mM DTT). Test compounds were prepared as 111× stocks in 100% DMSO. Kds were determined using an 11-point 3-fold compound dilution series with three DMSO control points. All compounds for Kd measurements are distributed by acoustic transfer (non-contact dispensing) in 100% DMSO. The compounds were then diluted directly into the assays such that the final concentration of DMSO was 0.9%. All reactions performed in polypropylene 384-well plate. Each was a final volume of 0.02 ml. The assay plates were incubated at room temperature with shaking for 1 hour and the affinity beads were washed with wash buffer (1×PBS, 0.05% Tween 20). The beads were then re-suspended in elution buffer (1×PBS, 0.05% Tween 20, 0.5 μM non-biotinylated affinity ligand) and incubated at room temperature with shaking for 30 minutes. The kinase concentration in the eluates was measured by qPCR.
(§3) An 11-point 3-fold serial dilution of each test compound was prepared in 100% DMSO at 100× final test concentration and subsequently diluted to 1× in the assay (final DMSO concentration=1%). Most Kds were determined using a compound top concentration=30,000 nM. If the initial Kd determined was <0.5 nM (the lowest concentration tested), the measurement was repeated with a serial dilution starting at a lower top concentration.
(§4) Binding constants (Kds) were calculated with a standard dose-response curve using the Hill equation: […]
(§5) The Hill Slope was set to −1. Curves were fitted using a non-linear least square fit with the Levenberg-Marquardt algorithm.

The target in series [3] is T2, PIK3CD (Homo sapiens, UniProt O00329).
T2 construct: purchased DiscoverX (KINOMEscan); host or cells: E. coli BL21-derived host (T7 phage) or HEK-293
T2 sequence (O00329 1-1044): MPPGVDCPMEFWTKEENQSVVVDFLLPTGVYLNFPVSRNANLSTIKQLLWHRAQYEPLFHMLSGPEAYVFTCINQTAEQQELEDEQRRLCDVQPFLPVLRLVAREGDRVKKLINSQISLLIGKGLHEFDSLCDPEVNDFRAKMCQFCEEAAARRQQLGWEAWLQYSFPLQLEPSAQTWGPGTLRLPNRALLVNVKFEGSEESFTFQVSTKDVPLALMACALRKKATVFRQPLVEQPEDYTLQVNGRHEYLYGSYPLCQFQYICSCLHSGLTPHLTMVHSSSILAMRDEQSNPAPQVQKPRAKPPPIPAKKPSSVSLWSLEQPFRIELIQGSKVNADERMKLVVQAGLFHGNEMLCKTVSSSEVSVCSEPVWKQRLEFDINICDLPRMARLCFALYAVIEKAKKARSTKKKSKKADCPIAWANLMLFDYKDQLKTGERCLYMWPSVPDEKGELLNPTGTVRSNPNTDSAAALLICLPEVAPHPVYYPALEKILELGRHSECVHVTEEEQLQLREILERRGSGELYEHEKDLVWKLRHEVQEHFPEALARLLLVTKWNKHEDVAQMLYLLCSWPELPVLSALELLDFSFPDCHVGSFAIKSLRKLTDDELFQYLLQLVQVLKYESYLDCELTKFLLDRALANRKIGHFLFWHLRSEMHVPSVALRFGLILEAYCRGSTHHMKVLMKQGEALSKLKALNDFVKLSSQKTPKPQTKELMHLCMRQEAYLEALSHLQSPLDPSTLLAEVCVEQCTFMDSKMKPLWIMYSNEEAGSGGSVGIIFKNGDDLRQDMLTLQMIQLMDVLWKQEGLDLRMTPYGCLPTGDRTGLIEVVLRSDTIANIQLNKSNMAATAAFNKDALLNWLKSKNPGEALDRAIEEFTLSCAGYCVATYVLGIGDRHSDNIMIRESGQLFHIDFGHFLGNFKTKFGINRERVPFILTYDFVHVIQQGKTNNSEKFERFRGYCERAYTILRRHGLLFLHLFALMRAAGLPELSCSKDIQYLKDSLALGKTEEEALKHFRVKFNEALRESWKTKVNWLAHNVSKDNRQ
Kind of series: KINOMEscan competition binding assay (DiscoverX). Particulars: DiscoveRx gene symbol PIK3CD (b251 prints: PI3Kγ). How it is done:
as §1, §2, §3, §4, §5

For series [4], the target named is T3, PIK3CA (PI3Kα) (Homo sapiens, UniProt P42336).
T3 construct: purchased DiscoverX (KINOMEscan); host or cells: E. coli BL21-derived host (T7 phage) or HEK-293
T3 sequence (P42336 whole entry): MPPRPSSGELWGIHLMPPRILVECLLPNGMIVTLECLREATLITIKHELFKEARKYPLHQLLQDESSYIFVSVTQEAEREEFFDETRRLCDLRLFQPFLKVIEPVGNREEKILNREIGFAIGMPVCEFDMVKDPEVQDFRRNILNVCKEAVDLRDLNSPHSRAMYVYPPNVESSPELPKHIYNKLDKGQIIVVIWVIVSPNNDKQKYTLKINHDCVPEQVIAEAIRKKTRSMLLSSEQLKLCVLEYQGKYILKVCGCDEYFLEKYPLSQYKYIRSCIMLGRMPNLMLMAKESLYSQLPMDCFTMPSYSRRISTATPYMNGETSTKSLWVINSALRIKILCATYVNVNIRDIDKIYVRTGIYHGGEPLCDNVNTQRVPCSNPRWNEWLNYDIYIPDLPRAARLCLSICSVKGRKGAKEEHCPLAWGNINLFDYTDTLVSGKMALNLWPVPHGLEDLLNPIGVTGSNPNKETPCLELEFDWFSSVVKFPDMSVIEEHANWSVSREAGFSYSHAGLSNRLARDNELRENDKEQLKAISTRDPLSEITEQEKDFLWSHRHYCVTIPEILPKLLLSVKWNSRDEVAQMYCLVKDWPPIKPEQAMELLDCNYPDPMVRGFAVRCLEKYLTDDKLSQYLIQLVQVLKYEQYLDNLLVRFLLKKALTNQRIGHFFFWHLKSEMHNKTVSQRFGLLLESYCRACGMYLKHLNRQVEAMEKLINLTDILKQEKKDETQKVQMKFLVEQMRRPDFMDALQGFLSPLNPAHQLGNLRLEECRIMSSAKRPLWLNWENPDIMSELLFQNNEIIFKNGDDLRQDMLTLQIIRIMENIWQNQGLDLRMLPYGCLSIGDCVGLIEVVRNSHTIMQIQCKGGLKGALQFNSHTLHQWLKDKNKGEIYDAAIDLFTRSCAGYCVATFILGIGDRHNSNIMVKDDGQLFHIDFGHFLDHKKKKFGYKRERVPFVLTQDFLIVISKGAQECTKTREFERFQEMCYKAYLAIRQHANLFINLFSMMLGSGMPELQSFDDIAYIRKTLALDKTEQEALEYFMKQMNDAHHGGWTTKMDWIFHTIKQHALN
Put plainly: KINOMEscan competition binding assay (DiscoverX). Particulars: DiscoveRx gene symbol PIK3CA (PI3Kα). How it is done:
as §1, §2, §3, §4, §5

For series [5], the target named is T4, PIK3CB (PI3Kβ) (Homo sapiens, UniProt P42338).
T4 construct: purchased DiscoverX (KINOMEscan); host or cells: E. coli BL21-derived host (T7 phage) or HEK-293
T4 sequence (P42338 whole entry): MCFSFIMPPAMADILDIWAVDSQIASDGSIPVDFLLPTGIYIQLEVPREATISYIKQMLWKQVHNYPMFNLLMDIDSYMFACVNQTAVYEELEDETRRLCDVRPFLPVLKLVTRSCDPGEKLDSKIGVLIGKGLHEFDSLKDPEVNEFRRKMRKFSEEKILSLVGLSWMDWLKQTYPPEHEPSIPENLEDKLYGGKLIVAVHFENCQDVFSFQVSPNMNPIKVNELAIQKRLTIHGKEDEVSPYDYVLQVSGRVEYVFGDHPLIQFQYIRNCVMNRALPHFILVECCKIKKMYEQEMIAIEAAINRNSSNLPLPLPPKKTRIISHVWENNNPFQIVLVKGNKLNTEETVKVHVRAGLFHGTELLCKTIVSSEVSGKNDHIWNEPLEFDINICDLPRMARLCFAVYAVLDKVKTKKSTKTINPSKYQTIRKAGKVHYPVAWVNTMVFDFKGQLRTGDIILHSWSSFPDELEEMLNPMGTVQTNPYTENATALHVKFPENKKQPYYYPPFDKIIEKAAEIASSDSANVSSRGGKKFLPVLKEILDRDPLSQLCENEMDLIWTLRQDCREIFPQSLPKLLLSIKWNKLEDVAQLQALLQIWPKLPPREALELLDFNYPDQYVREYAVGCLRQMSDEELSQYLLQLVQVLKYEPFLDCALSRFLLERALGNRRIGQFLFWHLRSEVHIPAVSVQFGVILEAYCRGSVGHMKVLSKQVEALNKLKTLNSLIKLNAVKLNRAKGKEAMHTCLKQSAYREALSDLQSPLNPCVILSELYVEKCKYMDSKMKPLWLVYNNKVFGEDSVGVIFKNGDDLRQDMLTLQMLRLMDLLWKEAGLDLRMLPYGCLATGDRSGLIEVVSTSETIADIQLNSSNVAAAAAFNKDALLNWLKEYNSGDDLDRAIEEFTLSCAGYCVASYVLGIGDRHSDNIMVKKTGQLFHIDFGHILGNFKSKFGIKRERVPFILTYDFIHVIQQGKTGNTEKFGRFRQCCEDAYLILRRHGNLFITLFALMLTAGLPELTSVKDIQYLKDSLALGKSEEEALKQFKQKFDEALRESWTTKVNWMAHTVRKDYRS
Put plainly: KINOMEscan competition binding assay (DiscoverX). Particulars: DiscoveRx gene symbol PIK3CB (PI3Kβ). How it is done:
as §1, §2, §3, §4, §5

Series [6] has as its system T-ALL cell line. Kind of series: T-ALL cell viability / cell death. Type of series: cell-based, murine. How it is done: Compounds DWL-PI3K-1, DWL-PI3K-2, DWL-PI3K-3, DWL-PI3K-4, DWL-PI3K-5, DWL-PI3K-6 and DWL-PI3K-7, and reference compounds CAL-130, tenalisib, duvelisib were evaluated for efficacy (cell viability by measuring ATP (CellTiter-Glo) or propidium iodide (PI) uptake) against a number of cancer cells, including LMO-2-007, OCI-LY-10, HH, H9, PF382 and CCRF-CEM.

Series [7] can be described thus: Pharmacokinetics relative to CAL-130. Format: in vivo.
Series [8] deals with murine PTEN null T-ALL cell line lacking both p110γ and p110δ catalytic domains. Put plainly: Killing of T-ALL cell line lacking p110γ and p110δ. Particulars: selectivity control line. Format: cell-based. The text has this: Compounds described herein also appear to be selective for p110 catalytic domains of PI3Kγ and PI3Kδ as treatment, for example, of a T-ALL cell line lacking these two p110 isoforms results in limited cell killing.

In series [9] the test system is mouse PTEN null/NOTCH activated T-ALL cell line. Kind of series: Gene set enrichment analysis of murine T-ALL disease signature after drug treatment. Type of series: cell-based. As to conditions: GSEA of T-ALL disease signature; 1 μM, 48 hours. How it is done:
This was also accomplished by generating gene expression signatures to assess the effects of drug treatment. Global gene expression profiles were obtained in triplicate using a mouse PTEN null/NOTCH activated T-ALL cell line driven by over expression of the transcription factor LMO2. […] Tumor cells were cultured in the presence of CAL-130 (2.5 μM) or the gamma-secretase inhibitor (GSI) Compound E (1 μM). Compound E blocks the activity of NOTCH1, which is also believed to support T-ALL tumor formation, proliferation, and survival. Drug treated cells were harvested at time points known to affect the expression of the proto-oncogene cMyc (12 hours and 48 hours, respectively), a master regulator of cell growth, metabolism and survival. A Venn diagram was created to illustrate the overlap in genes altered by either PI3Kγ/δ blockade (red circle) or GSI (green circle) using a false discovery rate (FDR) of 0.0005 as cut off (FIG. 1A). Of note, ten-fold more genes were affected following PI3Kγ/δ blockade, including the majority (˜62%) of genes altered by GSI monotherapy, a highly significant finding (Fisher's exact test, P<2.2×10^−16).
A murine T-ALL disease signature was further defined by ranking all genes based on their differential expression in T-ALL samples compared to wild type murine thymocytes. […]

This is an account of results in US11459306B2, “Compounds, compositions, and methods for treating T-cell acute lymphoblastic leukemia” (The Trustees of Columbia University in the City of New York, priority 2017, dated 2022).

T1 sequence (P48736 whole entry): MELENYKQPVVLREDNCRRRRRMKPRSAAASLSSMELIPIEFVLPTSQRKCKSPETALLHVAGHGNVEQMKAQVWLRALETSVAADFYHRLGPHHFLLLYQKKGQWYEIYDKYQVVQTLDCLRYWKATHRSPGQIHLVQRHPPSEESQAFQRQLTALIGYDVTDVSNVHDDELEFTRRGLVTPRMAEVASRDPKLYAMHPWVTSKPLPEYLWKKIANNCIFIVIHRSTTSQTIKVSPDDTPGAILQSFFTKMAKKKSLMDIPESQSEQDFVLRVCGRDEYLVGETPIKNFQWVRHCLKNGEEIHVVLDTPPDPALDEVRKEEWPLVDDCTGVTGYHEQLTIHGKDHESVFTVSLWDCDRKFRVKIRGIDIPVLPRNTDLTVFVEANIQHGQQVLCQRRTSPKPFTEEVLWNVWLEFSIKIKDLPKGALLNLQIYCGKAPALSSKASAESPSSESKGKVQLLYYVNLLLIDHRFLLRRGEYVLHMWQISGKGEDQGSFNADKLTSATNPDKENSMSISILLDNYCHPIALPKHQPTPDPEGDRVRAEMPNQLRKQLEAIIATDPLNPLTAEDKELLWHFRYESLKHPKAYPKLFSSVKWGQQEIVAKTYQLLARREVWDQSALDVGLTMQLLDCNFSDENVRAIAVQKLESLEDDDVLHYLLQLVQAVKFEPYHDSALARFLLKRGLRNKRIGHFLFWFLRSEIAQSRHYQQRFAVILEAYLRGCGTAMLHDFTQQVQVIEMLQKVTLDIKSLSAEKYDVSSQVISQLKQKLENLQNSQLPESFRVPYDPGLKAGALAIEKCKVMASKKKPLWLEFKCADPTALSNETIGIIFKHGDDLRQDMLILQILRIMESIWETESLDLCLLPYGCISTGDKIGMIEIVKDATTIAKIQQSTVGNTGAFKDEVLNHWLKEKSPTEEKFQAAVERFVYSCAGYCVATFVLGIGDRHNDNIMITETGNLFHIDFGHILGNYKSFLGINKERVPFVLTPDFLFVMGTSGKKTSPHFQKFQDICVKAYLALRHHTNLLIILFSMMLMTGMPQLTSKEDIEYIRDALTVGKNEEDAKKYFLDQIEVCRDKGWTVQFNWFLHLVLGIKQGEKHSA

With `C[C@H](Nc1ncnc2nc[nH]c12)c1cc2cccc(Cl)c2c(=O)n1-c1ccccc1` [IPI-145], the “effect on tumor burden and survival” value in series [1] is on record as “not as effective in reducing tumor burden or in prolonging overall survival”. The compound also yielded a mean survival in [1] (30 mg/kg tid) of 18 days.

The Kd is the concentration at which binding is half-saturated. For `Cc1ccccc1-n1c([C@H](C)Nc2nc(N)nc(N)c2C#N)nc2cccc(C)c2c1=O` [DWL-PI3K-1, (S)-2,4-diamino-6-((1-(5-methyl-4-oxo-3-(o-tolyl)-3,4-dihydroquinazolin-2-yl)ethyl)amino)pyrimidine-5-carbonitrile], the dissociation constant Kd in series [2] worked out at 200 pM; in series [3] it was 390 pM; in [4], 20000 pM; in [5], 920 pM. In [6], the “amount needed relative to CAL-130 to achieve a similar reduction in tumor cell survival” value was “about 10 fold less”. Besides, in series [7], the pharmacokinetics entry is “better pharmacokinetics”.

On to `C[C@H](Nc1nc(N)nc(N)c1C#N)c1cc2cccc(Cl)c2c(=O)n1-c1cc(F)cc(F)c1` [DWL-PI3K-5, (S)-2,4-diamino-6-(1-(8-chloro-2-(3,5-difluorophenyl)-1-oxo-1,2-dihydroisoquinolin-3-yl)ethylamino)pyrimidine-5-carbonitrile], for which the Kd in series [2] was found to be 380 pM; in series [3], 120 pM; in series [4], 30000 pM; in series [5], 1400 pM. Besides, the “amount needed relative to CAL-130 to achieve a similar reduction in tumor cell survival” value in series [6] was “about 10 fold less”. Besides, the pharmacokinetics result in series [7] is listed as “better pharmacokinetics”.

On to `Cc1nc(N)nc(N[C@@H](C)c2cc3cccc(Cl)c3c(=O)n2-c2ccccc2)c1C#N` [DWL-PI3K-4, (S)-2-amino-4-((1-(8-chloro-1-oxo-2-phenyl-1,2-dihydroisoquinolin-3-yl)ethyl)amino)-6-methylpyrimidine-5-carbonitrile], for which the Kd in [2] is 89 pM; in series [3], 42 pM; in [4], 2200 pM; in series [5] it was 150 pM. Moreover, the “cell killing of T-ALL cell line lacking p110γ and p110δ” value in series [8] is “limited killing”. For the same compound, the “efficacy in inducing T-ALL cell death relative to CAL-130” value in [6] (cultured T-ALL cells) is “greater efficacy than CAL-130”. Moreover, the “amount needed relative to CAL-130 to achieve a similar reduction in tumor cell survival” value in [6] was “about 10 fold less”. In addition, the pharmacokinetics entry in series [7] is “better pharmacokinetics”.

Consider `C[C@H](NC(=O)Cc1cc(F)cc(F)c1)C(=O)N[C@H]1N=C(c2ccccc2)c2ccccc2N(C)C1=O` [Compound E], for which the “normalized enrichment score (NES)” value in series [9] was −2.6.

`C[C@H](Nc1nc(N)nc(N)c1C#N)c1cc2cccc(Cl)c2c(=O)n1-c1cccc(F)c1` [DWL-PI3K-6, (S)-2,4-diamino-6-((1-(8-chloro-2-(3-fluorophenyl)-1-oxo-1,2-dihydroisoquinolin-3-yl)ethyl)amino)pyrimidine-5-carbonitrile]: the Kd was determined as 270 pM in series [2], 110 pM in [3], 10000 pM in series [4] and 460 pM in [5]. The “amount needed relative to CAL-130 to achieve a similar reduction in tumor cell survival” value in series [6] was “about 10 fold less”. The pharmacokinetics entry in [7] is “better pharmacokinetics”.

As for `Cc1ccccc1-n1c([C@H](C)Nc2nc(N)nc(C)c2C#N)nc2cccc(C)c2c1=O` [DWL-PI3K-2, (S)-2-amino-4-methyl-6-((1-(5-methyl-4-oxo-3-(o-tolyl)-3,4-dihydroquinazolin-2-yl)ethyl)amino)pyrimidine-5-carbonitrile], the dissociation constant (Kd) was determined as 620 pM in [2], 620 pM in series [3], 53000 pM in series [4] and 4300 pM in [5]. The “amount needed relative to CAL-130 to achieve a similar reduction in tumor cell survival” value in [6] is recorded as “about 10 fold less”. The pharmacokinetics entry in series [7] was “better pharmacokinetics”.

`[2H]c1c([2H])c([2H])c(-n2c([C@H](C)Nc3nc(N)nc(N)c3C#N)cc3cccc(Cl)c3c2=O)c([2H])c1[2H]` [DWL-PI3K-7, (S)-2,4-diamino-6-((1-(8-chloro-1-oxo-2-(phenyl-d5)-1,2-dihydroisoquinolin-3-yl)ethyl)amino)pyrimidine-5-carbonitrile]: the Kd in series [2] came to 170 pM; in [3], 120 pM; in series [4], 6100 pM; in series [5] it was 300 pM. The “cell killing of T-ALL cell line lacking p110γ and p110δ” value in series [8] is “limited killing effect”. Besides, in series [6], the “amount needed relative to CAL-130 to achieve a similar reduction in tumor cell survival” value is listed as “about 10 fold less”. Moreover, in [7], the pharmacokinetics result is “better pharmacokinetics”.
